Broadly, the inhibition is the percentage by which the read-out fell short of the control.

Among the data in patent publication US8232283B2, “Raf inhibitors” (Forma Therapeutics, Inc., priority 2008, dated 2012) are IC50 and inhibition values, retold here.

One assay deals with B-Raf (Homo sapiens, UniProt P15056). As to the kind of experiment: SelectScreen Kinase Profiling Service (Invitrogen), IC50 with or without 5 h preincubation of kinase/test compound. Type of assay: biochemical. As for the experimental part:
(§1) d) B-Raf/B-Raf (V600E) (SelectScreen™ Assay)
(§2) Selected compound of the present invention were tested in the Select Screen™ Kinase Profiling Service (Invitrogen Corporation, Madison, Wis. 53719, USA) against B-Raf and the B-Raf (V600E) [“V599E” in terminology used by Invitrogen], under conditions of non-disclosure, non-dissemination and non-use.
(§3) In brief, compounds 11 and 39 (see Table 1) were tested at Invitrogen against B-Raf and the B-Raf (V600E), either with or without preincubation of kinase/test compound for 5 hours.

The next assay addresses B-Raf (V600E) (Homo sapiens, UniProt P15056, V600E). The description is as above. Type of assay: biochemical. The method, then: as §1, §2, §3
Assay [1] deals with HT-29 [B-Raf V600E mutant]. As to the kind of experiment: Anti-proliferative activity, SRB assay, 72 hours. Type of assay: cell-based. To be noted: Homo sapiens, read-out: CELLULAR IC50 [μM] HT-29 [B-Raf V600E mutant]. Summed up:
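HT-29 cells, plated 24 h before dosing, exposed to a concentration range of compound for 72 h. Proliferation measured by sulforhodamine B staining after TCA fixation, absorbance at 520 nm; % inhibition versus DMSO-treated cells used to estimate IC50.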

The next assay concerns A-431 [B-Raf wildtype]. As to the kind of experiment: Anti-proliferative activity, SRB assay, 72 hours. Type of assay: cell-based. To be noted: Homo sapiens, read-out: CELLULAR IC50 [μM] A-431 [B-Raf wildtype]. The gist of the method:
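Cells seeded 24 h before compound, then exposed to a concentration range for 72 h. TCA-fixed, stained with sulforhodamine B, bound dye solubilized in 10 mM Trizma and read at OD520. IC50 from % inhibition of proliferation vs DMSO-treated cells.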
(In general: In SRB staining, fixed cells bind dye roughly in proportion to their protein.)

The target in the next assay is T1, C-Raf (Homo sapiens, UniProt P04049).
T1 construct: purchased Proteros biostructures GmbH (selectivity panel service)
Put plainly: Biochemical inhibition, standard selectivity panel (Proteros). Set-up: dose or concentration left out as unconfirmed. The method, then:
(§4) For example, selected compound of the present invention were tested in a standard selectivity panel including c-Raf, p38, and 22 other kinases (Proteros biostructures GmbH, Martinsried/Munich, Germany), under conditions of non-disclosure, non-dissemination and non-use.
(§5) In brief, selected compounds of the present invention were tested […] in triplicates against c-Raf, p38 as well as against Ab1, Akt1, Aur A, c-Kit, c-Raf, Cdk1/CycB, Chk1, FGFR3, Flt3, Fyn, IGF1-R, INSR, Lyn, MAPK-ERK1, PAK-4, PKCalpha, Plk1, Ret, ROCK2, RSK 1, c-Src, TIE2, and VEGF-R2.

The target of another assay is T2, p38 (Homo sapiens, UniProt Q16539).
T2 construct: purchased Proteros biostructures GmbH (selectivity panel service)
The assay is described as above. Details: dose or concentration left out as unconfirmed. The method, then:
as §4, §5

[2] abbreviates: 5 h preincubation of kinase/test compound, read-out: IC50 [nM] B-Raf 5 h preincub.
Setting [3] is: without preincubation of kinase/test compound, read-out: IC50 [nM] B-Raf w/o preincub.
The mark [4] stands for this setting: 5 h preincubation of kinase/test compound, read-out: IC50 [nM] B-Raf (V600E) 5 h preincub.
[5] abbreviates: without preincubation of kinase/test compound, read-out: IC50 [nM] B-Raf (V600E) w/o preincub.

SMILES strings stand for the structures. Read-outs that look alike come from different tables or passages of the source.

T1 sequence (P04049 whole entry): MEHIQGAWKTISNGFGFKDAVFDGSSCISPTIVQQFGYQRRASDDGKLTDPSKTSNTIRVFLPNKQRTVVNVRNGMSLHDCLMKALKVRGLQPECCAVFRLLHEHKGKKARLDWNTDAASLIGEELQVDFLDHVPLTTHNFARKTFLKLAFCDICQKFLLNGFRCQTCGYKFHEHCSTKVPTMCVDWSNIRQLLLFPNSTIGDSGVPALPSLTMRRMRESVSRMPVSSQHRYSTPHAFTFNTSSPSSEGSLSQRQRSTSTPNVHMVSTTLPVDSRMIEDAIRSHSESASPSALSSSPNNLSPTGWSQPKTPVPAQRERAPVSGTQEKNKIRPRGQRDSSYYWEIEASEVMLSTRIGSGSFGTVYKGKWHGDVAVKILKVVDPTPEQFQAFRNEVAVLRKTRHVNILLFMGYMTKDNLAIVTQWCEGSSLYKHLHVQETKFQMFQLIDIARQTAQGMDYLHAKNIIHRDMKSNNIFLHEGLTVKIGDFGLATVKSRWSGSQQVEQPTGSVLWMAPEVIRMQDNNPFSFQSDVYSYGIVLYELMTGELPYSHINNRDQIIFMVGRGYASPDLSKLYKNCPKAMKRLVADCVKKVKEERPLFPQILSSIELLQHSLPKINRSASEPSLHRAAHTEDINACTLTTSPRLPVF
Sequence of B-Raf (V600E) (P15056 whole entry V600E): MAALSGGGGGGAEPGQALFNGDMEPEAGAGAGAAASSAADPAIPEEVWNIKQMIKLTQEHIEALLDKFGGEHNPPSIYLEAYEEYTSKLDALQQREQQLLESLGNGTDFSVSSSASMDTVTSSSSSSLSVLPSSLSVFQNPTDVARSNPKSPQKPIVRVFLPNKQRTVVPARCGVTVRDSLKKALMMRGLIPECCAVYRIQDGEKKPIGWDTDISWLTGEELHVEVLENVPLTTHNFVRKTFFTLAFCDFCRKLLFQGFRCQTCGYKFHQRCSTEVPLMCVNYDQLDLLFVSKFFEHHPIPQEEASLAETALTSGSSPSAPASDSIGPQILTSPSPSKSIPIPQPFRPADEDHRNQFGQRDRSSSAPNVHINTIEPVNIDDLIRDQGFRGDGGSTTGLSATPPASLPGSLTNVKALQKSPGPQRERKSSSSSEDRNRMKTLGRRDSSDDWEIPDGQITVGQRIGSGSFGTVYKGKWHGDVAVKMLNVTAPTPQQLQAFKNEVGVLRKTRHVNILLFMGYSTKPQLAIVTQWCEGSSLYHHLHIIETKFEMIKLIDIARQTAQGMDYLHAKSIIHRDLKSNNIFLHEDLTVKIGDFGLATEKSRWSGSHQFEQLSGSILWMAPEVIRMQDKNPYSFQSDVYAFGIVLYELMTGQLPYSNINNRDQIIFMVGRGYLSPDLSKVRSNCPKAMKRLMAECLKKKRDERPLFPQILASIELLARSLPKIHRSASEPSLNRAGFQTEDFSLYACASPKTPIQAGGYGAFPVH
T2 sequence (Q16539 whole entry): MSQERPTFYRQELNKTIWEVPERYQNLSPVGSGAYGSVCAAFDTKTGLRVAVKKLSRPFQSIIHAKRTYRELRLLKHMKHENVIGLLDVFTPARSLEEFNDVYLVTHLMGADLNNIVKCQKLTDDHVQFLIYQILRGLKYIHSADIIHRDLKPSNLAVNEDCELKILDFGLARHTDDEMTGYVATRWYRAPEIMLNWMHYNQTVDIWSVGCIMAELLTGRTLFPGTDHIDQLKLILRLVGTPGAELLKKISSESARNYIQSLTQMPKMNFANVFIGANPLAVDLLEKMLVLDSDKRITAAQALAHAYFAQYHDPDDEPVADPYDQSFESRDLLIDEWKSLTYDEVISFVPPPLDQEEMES
Sequence of B-Raf (P15056 whole entry): as the sequence (P15056 whole entry V600E) above, with E600V counted along it

As for `COn1c(=O)c(-c2cc(NC(=O)c3cc(C(C)(C)C)nn3C)ccc2Cl)cc2cnc(NCCN(C)C)nc21` [Compound 11, 5-tert-Butyl-2-methyl-2H-pyrazole-3-carboxylic acid {4-chloro-3-[2-(2-dimethylamino-ethylamino)-8-methoxy-7-oxo-7,8-dihydro-pyrido[2,3-d]pyrimidin-6-yl]-phenyl}-amide], the IC50 on B-Raf (setting [2]) was < 250 nM; at B-Raf (setting [3]) it was < 250 nM; on B-Raf (V600E) (setting [4]), < 100 nM; on B-Raf (V600E) (setting [5]), < 100 nM; in assay [1], < 10 µM; in the assay with A-431 [B-Raf wildtype], > 10 µM.

`COn1c(=O)c(-c2cc(NC(=O)c3cccc(C(F)(F)F)c3F)ccc2Cl)cc2cnc(NCCN(C)C)nc21` [Compound 39, N-{4-Chloro-3-[2-(2-dimethylamino-ethylamino)-8-methoxy-7-oxo-7,8-dihydro-pyrido[2,3-d]pyrimidin-6-yl]-phenyl}-2-fluoro-3-trifluoromethyl-benzamide]: the IC50 on B-Raf (setting [2]) was < 10 nM; on B-Raf (setting [3]), < 10 nM; at B-Raf (V600E) (setting [4]), < 5 nM; at B-Raf (V600E) (setting [5]), < 5 nM; in assay [1] it was < 5 µM; in the assay with A-431 [B-Raf wildtype], > 10 µM. Also, the inhibition at C-Raf and against p38 was > 70% each time.

As for `COn1c(=O)c(-c2cc(NC(=O)Nc3ccc(C)c(C(F)(F)F)c3)ccc2Cl)cc2cnc(NCCN(C)C)nc21` [Compound 47, 1-{4-Chloro-3-[2-(2-dimethylamino-ethylamino)-8-methoxy-7-oxo-7,8-dihydro-pyrido[2,3-d]pyrimidin-6-yl]-phenyl}-3-(4-methyl-3-trifluoromethyl-phenyl)-urea], the inhibition against C-Raf and against p38 was > 70% in each case. In addition, the IC50 in assay [1] was < 5 µM; in the assay with A-431 [B-Raf wildtype], > 5 µM.

For the compound `COn1c(=O)c(-c2cc(NC(=O)Nc3cc(C(F)(F)F)cc(C(F)(F)F)c3)ccc2Cl)cc2cnc(NCCN(C)C)nc21` [Compound 50, 1-(3,5-Bis-trifluoromethyl-phenyl)-3-{4-chloro-3-[2-(2-dimethylamino-ethylamino)-8-methoxy-7-oxo-7,8-dihydro-pyrido[2,3-d]pyrimidin-6-yl]-phenyl}-urea], the inhibition against C-Raf and against p38 was > 70% each time. In addition, the IC50 in assay [1] was < 5 µM; with A-431 [B-Raf wildtype], < 10 µM.

Consider `COn1c(=O)c(-c2cc(NC(=O)c3cc(Cl)nc(N4CCOCC4)c3)ccc2Cl)cc2cnc(NCCN(C)C)nc21` [Compound 61, 2-Chloro-N-(4-chloro-3-(2-(2-(dimethylamino)ethylamino)-8-methoxy-7-oxo-7,8-dihydropyrido[2,3-d]pyrimidin-6-yl)phenyl)-6-morpholin-4-yl-isonicotinamide], for which the inhibition against C-Raf and against p38 was > 70% each time. Further, the values for the IC50 (in assay [1]; in the assay with A-431 [B-Raf wildtype]) were < 5 µM and > 10 µM, respectively.

For the compound `COn1c(=O)c(-c2cc(NC(=O)c3cc(Cl)nc(NC(C)C)c3)ccc2Cl)cc2cnc(NCCN(C)C)nc21` [Compound 64, 2-Chloro-N-(4-chloro-3-(2-(2-(dimethylamino)ethylamino)-8-methoxy-7-oxo-7,8-dihydropyrido[2,3-d]pyrimidin-6-yl)phenyl)-6-isopropylamino-isonicotinamide], the inhibition at C-Raf and on p38 was > 70% each time. The IC50 in assay [1] is < 5 µM; in the assay on A-431 [B-Raf wildtype] it was > 10 µM.
